Patent US9365614B2, “IAP BIR domain binding compounds” (priority 2006, dated 2016)

Legend:
HCT116 (colon) cells = experiment: Survival assay with TRAIL, HCT116; type: cell-based; conditions: Homo sapiens, HCT-116; in the presence of TRAIL (1-3 ng/mL)
Protocol: (§1) Survival assays were performed on various cell lines including MDA-MB-231, SKOV3, H460, PC3, HCT-116, and SW480 cells. Cells were seeded in 96 well plates at a respective density of 5000 and 2000 cells per well and incubated at 37° C. in presence of 5% CO2 for 24 hours. Selected compounds were diluted into the media at various concentration ranging from 0.01 uM up to 100 uM. Diluted compounds were added onto the MDA-MB-231 cells. For the MDA-MB-231 SKOV3, H460, PC3, HCT-116, and SW480 cells, the compounds were added either alone or in presence of 1-3 ng/ml of TRAIL. After 72 hours cellular viability was evaluated by MTS based assays. A solution of [3-(4,5-dimethylthiazol-2-yl)-5-(3-carboxymethoxyphenyl)-2-(4-sulfophenyl)-2H-tetrazolium, inner salt; MTS] was added onto cells for a period of 1 to 4 hours. Upon incubation the amount of converted MTS was evaluated using a Tecan spectrophotometer set at 570 nm.

SKOV-3 cells = experiment: Survival MTT assay, SKOV-3; type: cell-based; conditions: Homo sapiens, SK-OV-3, 72 h, read-out: EC50 against SKOV3
Protocol: (§2) One day prior the treatment with compound, 2000 to 4000 cells per well were plated in a tissue culture treated 96 well format dish with 100 ul of media and incubated at 37° C., 5% CO2. On the day of compound treatment, compounds were diluted with cell culture media to a working stock concentration of 2×. 100 uL of diluted compound were then added to each well. The treated plate was incubated for 72 h at 37° C., 5% CO2. Upon incubation, the cell viability was assessed as followed 20 uL of MTT reagent at 5 mg/ml were added per well to cell plate. The plate was incubated for 2 h at 37° C. in presence of 5% CO2. The supernatant was then removed from the plate and 100 uL of isopropanol were added. The absorbance was measured in a TECAN spectrophotometer at 570 nm. The percentage of viability was expressed in percentage of the signal obtained with non treated cells.

H460 (lung) cells = experiment: Survival assay with TRAIL, H460; type: cell-based; conditions: Homo sapiens, NCI-H460; in the presence of TRAIL (1-3 ng/mL)
Protocol: MDA-MD-231 (breast) and H460 (lung) cancer cells were cultured in RPMI1640 media supplemented with 10% FBS and 100 units/mL of Penicillin and Steptomycin.
as §1

MDA-MB231 cells = experiment: Survival MTT assay, MDA-MB-231; type: cell-based; conditions: Homo sapiens, 72 h
Protocol: as §2

[1] = biological target: T1, XIAP linker BIR2-BIR3-ring (GST-linker BIR 2 BIR3Ring) (Homo sapiens, UniProt P98170); experiment: Fluorescence polarization competition assay, BIR2-BIR3-ring, probe P2; type: binding; conditions: BIR2-BIR3-ring FP assay
T1 construct: made in house; host or cells: E. coli DH5-alpha
Source text: GST-linker BIR 2 BIR3Ring: XIAP coding sequence from amino acids 93-497 cloned into PGex4T1 via BamH1 and XhoI. Amino acids 93-497 were amplified from full length XIAP in pGex4t3, using the primers: […] (SEQ ID NO: 7) and GCTGCATGTGTGTCAGAGG (SEQ ID NO: 8), using standard PCR conditions. The PCR fragment was TA cloned into pCR-2.1 (invitrogen). Linker BIR 2 BIR 3Ring was subcloned into pGex4T1 by BamHI/XhoI digestion. The plasmid was transformed into E. coli DH5a for use in protein expression and purification.
For all assays, the fluorescence and fluorescence-polarization was evaluated using a Tecan Polarion instrument with the excitation filter set at 485 nm and the emission filter set at 535 nm. […] Upon establishing these conditions, the compounds potency (IC50) and selectivity, was assessed in the presence of a fix defined-amount of target protein and fluorescent probe and a 10 point serial dilution of the selected compounds. […] Auto-fluorescence for each compound was first assessed by performing a reading of the compound/BSA solution alone. Then 25 uL of the fluorescein probe diluted into 50 mM MES containing 0.05 mg/ml BSA were added and a reading to detect quenching of fluorescein signal done. […]
The ki of various compounds in the BIR2-BIR3-ring FP assay, using probe P2, was determined as described above.

PC3 cells = experiment: Survival assay (MTS), PC3; type: cell-based; conditions: Homo sapiens, PC-3; in the presence of TRAIL (1-3 ng/ml)
Protocol: as §1

HELA (cervical) cells = experiment: Survival assay with TRAIL, HELA; type: cell-based; conditions: Homo sapiens, in the presence of TRAIL (1-3 ng/mL)
Protocol: as §1

HEY (ovarian) cells = experiment: Survival assay with TRAIL, HEY; type: cell-based; conditions: in the presence of TRAIL (1-3 ng/mL)
Protocol: as §1

OVCAR-3 (ovarian) cells = experiment: Survival assay with TRAIL, OVCAR-3; type: cell-based; conditions: Homo sapiens, in the presence of TRAIL (1-3 ng/mL)

T1 sequence (P98170 93-497): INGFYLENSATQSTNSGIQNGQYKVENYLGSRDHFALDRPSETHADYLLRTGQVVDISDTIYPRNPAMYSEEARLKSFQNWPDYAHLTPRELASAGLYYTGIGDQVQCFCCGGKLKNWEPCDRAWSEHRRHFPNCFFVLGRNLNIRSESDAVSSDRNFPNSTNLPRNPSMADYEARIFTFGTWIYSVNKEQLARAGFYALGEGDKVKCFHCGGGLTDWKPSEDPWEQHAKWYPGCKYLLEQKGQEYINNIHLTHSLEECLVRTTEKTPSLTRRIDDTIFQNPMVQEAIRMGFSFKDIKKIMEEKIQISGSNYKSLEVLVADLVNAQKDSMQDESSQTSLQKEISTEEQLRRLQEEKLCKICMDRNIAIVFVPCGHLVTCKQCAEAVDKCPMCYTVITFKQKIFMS

## CN[C@@H](C)C(=O)N[C@H](C(=O)N1C[C@@H](NC(=O)c2ccc(C(=O)N[C@H]3C[C@@H](C(=O)N[C@@H]4CCCc5ccccc54)N(C(=O)[C@@H](NC(=O)[C@H](C)NC)C(C)(C)C)C3)cc2)C[C@H]1C(=O)N[C@@H]1CCCc2ccccc21)C(C)(C)C [Compound 3]
HCT116 (colon) cells
  EC50: < 1000 nM
SKOV-3 cells
  EC50: 1 nM
H460 (lung) cells
  EC50: < 1000 nM
MDA-MB231 cells
  EC50: < 50 nM
[1]
  Ki: < 100 nM
PC3 cells
  EC50: < 1000 nM
HELA (cervical) cells
  EC50: < 1000 nM
HEY (ovarian) cells
  EC50: < 1000 nM
OVCAR-3 (ovarian) cells
  EC50: < 1000 nM
